The values below are quoted from earlier work in article PMC12266345, “Discovery and characterization of selective lipase-inhibiting polyheterocyclic derivatives: a combined in silico and in vitro study” (Turkish Journal of Biology, 2025).

For the data set, the target named is lipase.
The mark [1] stands for this setting: ref Ruiz et al., 2006, Benarous et al., 2015.

≈ marks a conversion by molar mass, not a printed value. Like-named read-outs stand apart in the source and are kept apart here.

`O=C(N[C@H](CO)[C@H](O)c1ccc([N+](=O)[O-])cc1)C(Cl)Cl` [Chloramphenicol]: for the setting “ref Liu et al., 2006”, the IC50 lipase inhibition is 220 ± 0.003 µg/mL (≈ 681 µM).

Take `O.Oc1cc(O)c2c(c1)O[C@H](c1ccc(O)c(O)c1)[C@@H](O)C2` [catechin]: the IC50 lipase inhibition under setting [1] is 183 µg/mL.

Take `Cc1nc(-c2ccc(OCC(C)C)c(C#N)c2)sc1C(=O)O` [febuxostat]: the IC50 lipase inhibition (ref Serseg and Benarous, 2018) is 660 µg/mL (≈ 2090 µM).

On to `Nc1nc(=O)c2nc(CNc3ccc(C(=O)N[C@@H](CCC(=O)O)C(=O)O)cc3)cnc2[nH]1` [folic acid], for which the IC50 lipase inhibition (ref Serseg and Benarous, 2018) was 640 µg/mL (≈ 1450 µM). With `COc1ccc2c3c([nH]c2c1)C(C)=NCC3` [harmaline], the IC50 lipase inhibition under setting [1] was 830 µg/mL (≈ 3870 µM). For the compound `O=c1cc(O)cc(/C=C/c2ccc(O)c(O)c2)o1` [hispidin], the IC50 lipase inhibition under setting [1] was 179 µg/mL (≈ 727 µM). Turning to `CCOC(=O)N1CCC(=C2c3ccc(Cl)cc3CCc3cccnc32)CC1` [loratadine], the IC50 lipase inhibition (ref Benarous et al., 2018) is 440 ± 0.02 µg/mL (≈ 1150 µM). With `CN(C)[C@@H]1C(O)=C(C(N)=O)C(=O)[C@@]2(O)C(O)=C3C(=O)c4c(O)cccc4[C@@](C)(O)[C@H]3C[C@@H]12` [tetracycline], the IC50 lipase inhibition (ref Liu et al., 2006) is 470 ± 0.005 µg/mL (≈ 1060 µM).
